Data taken from PMC9967275, “Screening the Pathogen Box to Discover and Characterize New Cruzain and TbrCatL Inhibitors” (Pathogens, 2023).

Columns and labels:
cruzain = cruzain (Trypanosoma cruzi, UniProt P25779); test: biochemical; settings: for Cruzain 0’ Inhibition / Cruzain 10’ Inhibition: sheet "Screening results"
Protocol: (§1) Allison Doak and Prof. Brian Shoichet (University of California San Francisco, San Francisco, CA, USA) and Prof. Conor Caffrey (University of California San Diego, San Diego, CA, USA) generously provided recombinant cruzain and TbrCatL, respectively. In vitro activity of proteases cruzain and TbrCatL was assayed as previously described. Briefly, enzyme activity was measured by monitoring the cleavage of the fluorogenic substrate […] (Z-FR-AMC) at 25 °C. Fluorescence was monitored at 340/440 nm (excitation/emission) over 5–7 min in a Synergy2 Biotek plate reader. […] DMSO and 1 μM E-64 were employed as negative and positive controls, respectively, in all assays. Two conditions were employed for both enzymes: 10′ pre-incubation of the enzyme in the presence of the compound (10′ inc) and no pre-incubation (0′). Reported values correspond to the mean and standard error of the mean (SEM) and all analyses were performed using GraphPad Prism 6.0.
(§2) For the initial screening, compounds were assayed at 5 μM. […] IC50 curves were obtained from a non-linear fit of at least seven distinct compound concentrations, in triplicate. Reported IC50 values are the mean and SEM of two independent measurements.

TbrCatL = biological target: T1, TbrCatL (Trypanosoma brucei rhodesiense, UniProt Q95PM0); test: TbrCatL enzymatic inhibition assay (cleavage of fluorogenic substrate Z-FR-AMC); assay type: biochemical; settings: for TbrCatL 0’ Inhibition / TbrCatL 10’ Inhibition: sheet "Screening results"
T1 construct: Conor Caffrey (University of California San Diego)
T1 sequence (Q95PM0 entry or part of it): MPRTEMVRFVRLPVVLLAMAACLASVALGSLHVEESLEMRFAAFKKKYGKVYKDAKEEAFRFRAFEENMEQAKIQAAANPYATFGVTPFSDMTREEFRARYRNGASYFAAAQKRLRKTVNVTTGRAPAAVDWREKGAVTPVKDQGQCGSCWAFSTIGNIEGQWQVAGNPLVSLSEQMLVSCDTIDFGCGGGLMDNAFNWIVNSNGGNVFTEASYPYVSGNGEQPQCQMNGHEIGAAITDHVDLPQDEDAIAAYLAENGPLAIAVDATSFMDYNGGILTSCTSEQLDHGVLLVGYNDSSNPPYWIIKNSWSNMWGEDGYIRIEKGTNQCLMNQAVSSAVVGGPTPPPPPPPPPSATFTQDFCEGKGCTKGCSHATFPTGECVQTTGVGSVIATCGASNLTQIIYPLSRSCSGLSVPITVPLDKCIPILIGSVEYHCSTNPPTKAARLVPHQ
Protocol: as §1, §2

[1] = 0’ (no pre-incubation), sheet Screening results
[2] = 10’ (pre-incubation), sheet Screening results
[3] = 0’ (pre-incubation time), Pathogen Box screening results
[4] = 10’ (pre-incubation time), Pathogen Box screening results
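Note: at 5 µM compound concentration.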

Chain of cruzain (P25779 123-337 limits assumed): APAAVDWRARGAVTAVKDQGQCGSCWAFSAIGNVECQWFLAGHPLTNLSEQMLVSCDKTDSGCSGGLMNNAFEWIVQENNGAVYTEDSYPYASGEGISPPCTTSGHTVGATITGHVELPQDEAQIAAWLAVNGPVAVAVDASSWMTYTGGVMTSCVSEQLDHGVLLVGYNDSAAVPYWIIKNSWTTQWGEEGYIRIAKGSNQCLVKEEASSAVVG

| Structure (SMILES) | Cruzain 0’ Inhibition (cruzain; 0’ (pre-incubation time)) | Cruzain 10’ Inhibition (cruzain; 10’ (pre-incubation time)) | TbrCatL 0’ Inhibition (TbrCatL; 0’ (pre-incubation time)) | TbrCatL 10’ Inhibition (TbrCatL; 10’ (pre-incubation time)) | Cruzain Inhibition 0’ (cruzain; [1]) | Cruzain Inhibition 10’ (cruzain; [2]) | TbrCatL Inhibition 0’ (TbrCatL; [1]) | TbrCatL Inhibition 10’ (TbrCatL; [2]) | also measured |
| --- | --- | --- | --- | --- | --- | --- | --- | --- | --- |
| NCC(=O)N1CCn2c(nc(-c3ccccc3)c2Nc2ccc3c(c2)OCO3)C1 [MMV011691] | 1.8% | -3.4% | -1.7% | 1.3% | – | – | – | – | – |
| FC(F)(F)c1cnc(Sc2nnc(-c3ccncc3)o2)c(Cl)c1 [MMV011765] | 0.7% | -0.5% | -4% | -1.2% | – | – | – | – | – |
| Cc1ccc(NC(=O)c2nc[nH]c2C(=O)Nc2nc3ccccc3[nH]2)c(C)c1 [MMV011903] | – | – | – | – | -1.2% | -15% | -18% | -43% | – |
| Cc1nc2ccccn2c1C(=O)NCc1ccc(Cl)cc1 [MMV012074] | – | – | – | – | 25% | 12% | -0.2% | 5.6% | – |
| Cc1cc(Nc2ccncc2)n2nc(C)c(-c3ccccc3Cl)c2n1 [MMV016136] | – | – | – | – | 4.7% | 4.5% | 3.2% | 6% | – |
| Cc1ccc(-c2cc(C(=O)Nc3cccnc3)c3cc(Br)ccc3n2)cc1 [MMV016838] | – | – | – | – | – | – | – | – | Cruzain Inhibition 0’ (cruzain; [3]): 4.3%; Cruzain Inhibition 10’ (cruzain; [4]): 7.6%; TbrCatL Inhibition 0’ (TbrCatL; [3]): 1.7%; TbrCatL Inhibition 10’ (TbrCatL; [4]): 0.3% |
| Cc1cc(C)n2nc(C(=O)Nc3cc(C(F)(F)F)ccc3N3CCOCC3)nc2n1 [MMV019087] | – | – | – | – | 1.6% | 2.6% | 4.3% | 3% | – |
| Cc1ccc2c(c1C)NC(=O)C21NN=C(c2ccccc2)S1 (stereo not shown) [MMV019189] | – | – | – | – | -17% | -22% | -21% | 14% | – |
| COc1ccc(C2CC(c3cccs3)=NN2C(=O)c2ccco2)cc1OC (stereo not shown) [MMV019234] | – | – | – | – | 6.6% | 8% | 7% | 22% | – |
| CCC(NC(=O)c1ccccc1NC(=O)c1ccc(C)cc1)C(=O)OC (stereo not shown) [MMV019551] | -0.5% | 1.2% | -0.4% | 3.2% | – | – | – | – | – |
| CCN(CC)S(=O)(=O)c1ccc(Cl)c(C(=O)Nc2ccc3nc(C)sc3c2)c1 [MMV019721] | – | – | – | – | 6.4% | 6.4% | 5% | -2.6% | – |
| Cc1ccc(S(=O)(=O)N2CCN(C(=O)c3cc(-c4ccccc4)n[nH]3)CC2)cc1 [MMV019742] | – | – | – | – | -5% | -3% | 3.5% | -2.5% | – |
| CCOc1ccccc1C(=O)Nc1cccc(-c2nc3ncccn3c2C)c1 [MMV019790] | 3.2% | 4% | 8% | -0.3% | – | – | – | – | – |
| Cc1ccc2cc(C3NC(=O)c4ccccc4N3)c(Cl)nc2c1 (stereo not shown) [MMV019807] | – | – | – | – | 8% | 7% | 5% | 9% | – |
| O=C(Nc1ccnc(-c2cccnc2)n1)c1cc(C(F)(F)F)cc(C(F)(F)F)c1 [MMV019838] | – | – | – | – | 2% | 16% | -8% | -5% | – |
| Cc1nn(C)cc1C(C)Nc1nncc(-c2ccc(C(F)(F)F)cc2)n1 (stereo not shown) [MMV019993] | -5% | -1.8% | 0.6% | -3.6% | – | – | – | – | – |
| COc1cccc(CC(=O)N2CCC(n3c(C)nc4ccc(F)cc43)CC2)c1 [MMV020081] | 5% | 10% | 1.6% | 18% | – | – | – | – | – |
| CC1CC1C(=O)NC1CCN(CC2(c3ccccc3)CCCCC2)CC1 (stereo not shown) [MMV020120] | – | – | – | – | 1.3% | -0.5% | -2.3% | 3.8% | – |
| CNC(=O)c1cc(S(=O)(=O)N2CCN(c3ccccn3)CC2)cs1 [MMV020136] | – | – | – | – | 5% | 2% | -6.4% | -5.6% | – |
| Cc1cc(C(=O)Nc2ccc(-c3ccccc3)cc2)no1 [MMV020152] | – | – | – | – | 3.7% | -0.4% | -2% | 1.1% | – |

| Structure (SMILES) | Cruzain 0’ Inhibition (cruzain; 0’ (pre-incubation time)) | Cruzain 10’ Inhibition (cruzain; 10’ (pre-incubation time)) | TbrCatL 0’ Inhibition (TbrCatL; 0’ (pre-incubation time)) | TbrCatL 10’ Inhibition (TbrCatL; 10’ (pre-incubation time)) | Cruzain Inhibition 0’ (cruzain; [1]) | Cruzain Inhibition 10’ (cruzain; [2]) | TbrCatL Inhibition 0’ (TbrCatL; [1]) | TbrCatL Inhibition 10’ (TbrCatL; [2]) | also measured |
| --- | --- | --- | --- | --- | --- | --- | --- | --- | --- |
| CC(C)NCC(=O)Nc1cccc(C(=O)Nc2cccc(C(F)(F)F)c2)c1 [MMV020165] | -1.7% | 12% | 1.8% | 5% | – | – | – | – | – |
| Cc1ccc(NC(=O)c2cc(S(=O)(=O)NC(C)(C)C)ccc2C)nc1 [MMV020289] | 1% | 1.9% | 1.9% | 1.3% | – | – | – | – | – |
| CC(C(=O)N1CCCC1)N1CCN(S(=O)(=O)c2ccc(C(C)(C)C)cc2)CC1 (stereo not shown) [MMV020291] | 2.5% | 6% | 4.3% | 8% | – | – | – | – | – |
| Cc1nnc(NC(=O)c2cn(-c3ccccc3)nc2-c2ccccc2C)o1 [MMV020320] | – | – | – | – | 4.5% | 2.2% | -0.2% | 4% | – |
| COc1ccccc1C(C)NCC(=O)Nc1cc(C(F)(F)F)ccc1Cl (stereo not shown) [MMV020321] | – | – | – | – | 0.3% | -0.8% | -9% | -10% | – |
| CC1CCCN(C(=O)C(C)Nc2cc(Cl)ccc2N2CCOCC2)C1 (stereo not shown) [MMV020388] | – | – | – | – | 3.4% | 4.5% | 3.3% | 0.2% | – |
| CC(C)C(C(=O)Nc1ccc(S(=O)(=O)N(C)C)cc1)c1ccc(Cl)cc1 (stereo not shown) [MMV020391] | – | – | – | – | -1.5% | 2% | -3.4% | -2.5% | – |
| Cc1ccc(Oc2ccc(NC(=O)CNc3ccccc3N3CCCC3=O)cc2)cc1 [MMV020512] | – | – | – | – | 0.2% | 8% | -3.2% | -0.2% | – |
| COc1ccccc1CNC(=O)c1cc(C2CC2)nc2c1cnn2C(C)C [MMV020517] | – | – | – | – | 4% | 7% | 2.7% | 9% | – |
| Cc1cc2ccccc2n1CC(=O)N1CC(C(=O)N2CCCCC2)Oc2ccccc21 (stereo not shown) [MMV020520] | – | – | – | – | 4.7% | 3.4% | 1.6% | 10% | – |
| O=C(NC1CC1)c1ccc(N2CCOc3ccc(Cl)cc32)s1 [MMV020537] | – | – | – | – | 18% | 9% | 8% | 6% | – |
| CC(C)C(NC(=O)Cc1cccc2ccccc12)C(=O)Nc1cccc(C#N)c1 (stereo not shown) [MMV020591] | – | – | – | – | -1.7% | -0.4% | -8% | -3.7% | – |
| Cc1noc(C)c1C(=O)N1CCCC(c2[nH]c3c(C)cccc3c2-c2ccncc2)C1 (stereo not shown) [MMV020623] | – | – | – | – | 0.3% | 5% | -5.6% | 4% | – |
| COc1ccc(-c2cncc3ccc(C(=O)NCCCn4ccnc4)nc23)cc1 [MMV020670] | -2.2% | -17% | -3% | -13% | – | – | – | – | – |
| COc1ccc(Cl)cc1NC(=O)CN(C)C(=O)c1cnn(-c2ccccc2)n1 [MMV020710] | – | – | – | – | -11% | -36% | -10% | -99% | – |
| CC(C)(C)c1cc(C(=O)Nc2cccnc2)cc(C(=O)Nc2cccnc2)c1 [MMV020982] | – | – | – | – | 1.3% | -0.5% | -6% | -7% | – |
| c1ccc(-c2nc(NC3CCCCC3)cc(C3CC3)n2)nc1 [MMV021013] | – | – | – | – | – | – | – | – | Cruzain Inhibition 0’ (cruzain; [3]): 9%; Cruzain Inhibition 10’ (cruzain; [4]): 16%; TbrCatL Inhibition 0’ (TbrCatL; [3]): -1.4%; TbrCatL Inhibition 10’ (TbrCatL; [4]): 19% |
| CO/C=C(\C(=O)OC)c1ccccc1Oc1cc(Oc2ccccc2C#N)ncn1 [MMV021057] | – | – | – | – | 1.6% | 6.5% | 1.9% | 9% | – |
| Cc1cc(NCC(C)C)c2[nH]nc(-c3ccccc3)c2n1 [MMV021375] | 18% | 23% | 17% | 20% | – | – | – | – | – |
| Cc1cc(NCCc2ccccc2)nc(NC(=N)Nc2ccc(Cl)cc2)n1 [MMV021660] | 11% | 14% | -3.6% | 7% | – | – | – | – | – |
